This is an account of results in article PMC9486805, “Identification of a Phage Display-Derived Peptide Interacting with the N-Terminal Region of Factor VII Activating Protease (FSAP) Enables Characterization of Zymogen Activation” (ACS Chemical Biology, 2022).

Assay [1] addresses T1, pro-FSAP purified from human plasma (Homo sapiens, UniProt Q14520).
T1 construct: Pro-FSAP was isolated from human plasma as described before; from tissue; host or cells: human plasma
Description: Pro-FSAP activation assay, purified pro-FSAP, chromogenic substrate S-2288. Type of assay: biochemical. How it is done: Figure 1 Isolation of pro-FSAP binding peptides and their activity: (A) strategy to isolate high-affinity phages from the NNKC9 and NNK11 libraries that bind to pro-FSAP. To select for strong binders, an excess of free pro-FSAP protein was used for competitive elution of low-affinity binders. High-affinity binders retained on the beads were analyzed further. The sequences of major positive clones identified through an ELISA-based binding assay from the NNKC9 and NNK11 libraries are shown. (B) NNK11/189 and scrambled controls (0–50 μM) and histones (0–50 μg/mL) were added to purified pro-FSAP (1.0 μg/mL) and the turnover of the chromogenic substrate S-2288 (200 μM) was measured. (C) NNKC9/41 was compared to a peptide that was synthetically monocyclized (Cys–Cys cyclic), a peptide with Ser residues instead of Cys at both ends (Ser–Ser linear), a peptide with Ser residues at the end cyclized head to tail (Ser–Ser cyclic), and a scrambled peptide in a pro-FSAP activation assay. (D) Hirudin plasma (1:12 dilution) was incubated with histones (25 μg/mL), NNKC9/41, or Ser–Ser linear control (each, 25 μM), the fluorogenic substrate turnover (Ac–Ala–Lys–Nle–Arg–AMC) was monitored in duplicate wells, and results from a single well are shown. In panels (B) and (C), results are shown as mean + range (duplicate wells). Results were replicated with five different batches of NNKC9/41 (panels (B) and (C)).
Pro-FSAP was isolated from human plasma as described before.[14] The content of the zymogen form varied from 50% to 90% due to autoactivation during the purification process. Histones, isolated from the calf thymus, were obtained from Sigma-Aldrich (Oslo, Norway). FSAP activity assays were performed as described previously.[51] In brief, microtiter wells were blocked with TBS (25 mM Tris–HCl, pH 7.5, and 150 mM NaCl) containing 3% (w/v) BSA for 1 h and washed with TBS-T. The standard assay consisted of TBS-T with 0.3% (w/v) BSA and CaCl2 (2 mM) 1 μg/mL (15 nM) plasma purified pro-FSAP and 250 μM chromogenic substrate S-2288 (D-Ile-L-Pro-L-Arg-p-nitroaniline dihydrochloride) (Haemochrome Diagnostica, Essen, Germany) and was followed at 37 °C at 405 nm in a microplate reader Synergy HI plate reader (BioTek Instruments, Winooski). In some experiments, a fluorescent substrate of FSAP[35] was used.

Assay [2] addresses T2, pro-FSAP in human plasma (Homo sapiens, UniProt Q14520).
T2 construct: from tissue; host or cells: human hirudin or citrate plasma from healthy donors, diluted 1:12
Description: Western blotting of activated plasma, FSAP-inhibitor complex. Type of assay: biochemical. Conditions: hirudin and citrate plasma 1:2, 1 h at 37 °C, non-reducing; NNKC9/41 25 µM (Fig S6). As for the experimental part:
Hirudin plasma Citrate plasma
Fig S6. Western blotting of activated plasma: Hirudin or citrate plasma (1:2) dilution was incubated for 1 h at 37 °C with test substances and the samples were analyzed by Western blotting with an anti-FSAP polyclonal antibody under non-reducing conditions. Top panel: NNKC9/41 and Ser-Ser cyclic peptides (25 µM) were compared to histones (50 µg/ml). Lower panel: 100, 50, 25 and 12.5 µM NNKC9/41 and Ser-Ser cyclicpeptide were compared. Arrows on the right indicate the presence of FSAP and FSAP-inhibitor complexes and MW markers are indicated on the left.Results are representative of 3 independent experiments. […]
(In general: A western blot detects proteins with antibodies after separation by electrophoresis.)

Assay [3] relates to pro-urokinase. Description: Specificity towards pro-enzymes: pro-urokinase. Conditions: pro-uPA 100 nM; peptide 0-50 μM; PNAPEP 1344 (Fig S7). Type of assay: biochemical. How it is done:
Fig S7. […]
µM). Pro-uPA (100 nM) and uPA (20 nM) with PNAPEP 1344 (250 µM). Factor X (50 […]
(§1) Bend, IN, USA) except plasminogen and FSAP, which were isolated in house; and pro-uPA was from Grünenthal (Stolberg, Germany). All chromogenic substrates were from Hyphen Biomed (Neuville Sur Oise, France). Experiments were carried out in TBS with Tween-20 (0.1 % wt/ vol) BSA (0.3% wt/vol) and CaCl2 (2 mM). Absorbance at 405 nm was measured over time and the enzyme activity is depicted was measured in duplicates (mean + or -range) and similar results were obtained in 3

For assay [4], the system named is factor X. The assay can be described thus: Specificity towards pro-enzymes: factor X. The format is biochemical. Conditions: Factor X 50 nM; peptide 0-50 μM; S-2765 (Fig S7). How it is done:
Fig S7. […]
as §1

Assay [5] has as its system pro-FSAP in MI/MI plasma. The assay can be described thus: Substrate turnover in MI/MI plasma. The format is biochemical, human. Conditions: MI/MI citrate plasma 1:12; 25 μM (Fig 6A). How it is done: Figure 6 Pro-FSAP activation and clotting in plasma by NNKC9/41: (A) citrate plasma (1:12 dilution) from donors with WT/WT, WT/MI, and MI/MI genotypes and WT-FSAP-deficient plasma (FSAP-DP) were compared. Substrate turnover was monitored after addition of NNKC9/41 or the Ser–Ser linear peptide (25 μM each). Results are shown as mean + range of duplicate wells. (B) Pooled prothrombin-deficient citrated plasma (1:5 dilution) was recalcified with 10 mM CaCl2 and incubated with NNKC9/41 or scrambled control peptide (0–25 μM each) for 60 min at 37 °C in the presence or absence of the FSAP-inhibitory MA-FSAP-38C7 (5 μg/mL). Initiation of clotting was achieved by adding the tissue factor/phospholipid and prothrombin complex concentrate. Clotting time was measured as diluted prothrombin time (dPT) in seconds. Data are the mean of three independent experiments. The relative dPT in % of the untreated control is presented as mean ± standard error (SE) (*p <0.05, two-way analysis of variance (ANOVA) and Bonferroni post-test).
Human citrate plasma (0.38% w/v) or hirudin plasma (25 μg/mL Lepirudin) was obtained from five healthy donors. […] Hydrolysis of the fluorogenic substrates was measured using a Synergy HI plate reader with excitation at 320 nm and emission at 460 nm at 37 °C for 60 min. The maximal velocity was calculated from the linear part of the progress curve. […]

T1 sequence (Q14520 24-560): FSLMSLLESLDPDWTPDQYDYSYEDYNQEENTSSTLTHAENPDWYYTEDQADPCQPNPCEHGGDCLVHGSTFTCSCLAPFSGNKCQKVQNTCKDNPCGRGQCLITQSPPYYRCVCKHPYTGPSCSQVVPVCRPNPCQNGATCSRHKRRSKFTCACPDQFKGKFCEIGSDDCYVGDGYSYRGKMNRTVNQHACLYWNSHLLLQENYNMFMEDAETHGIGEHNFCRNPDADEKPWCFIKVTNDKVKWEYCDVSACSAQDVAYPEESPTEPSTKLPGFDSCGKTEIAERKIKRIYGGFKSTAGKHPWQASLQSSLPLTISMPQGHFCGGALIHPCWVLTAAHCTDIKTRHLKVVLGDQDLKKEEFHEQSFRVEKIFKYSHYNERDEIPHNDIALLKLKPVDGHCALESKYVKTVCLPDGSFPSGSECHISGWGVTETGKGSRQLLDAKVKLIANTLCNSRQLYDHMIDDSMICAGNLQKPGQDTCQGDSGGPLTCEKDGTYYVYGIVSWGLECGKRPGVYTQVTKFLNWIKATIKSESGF
T2 sequence (Q14520 24-560): as above

As to CRGAMWMYKRC [NNKC9/41], the “effect on pro-FSAP activation” value in assay [1] (purified pro-FSAP 1.0 μg/mL, peptides 0–50 μM, histones 0–50 μg/mL, S-2288 (200 μM in legend b10, 250 μM in method b60), 37 °C, 405 nm, duplicate wells) is reported as “able to robustly activate pro-FSAP”. For the same sequence, the Maximal activation in assay [1] (purified pro-FSAP, S-2288, linear synthetic peptide stored under oxidative conditions, duplicate wells, five batches) is 2–2.5 fold. Besides, the “selectivity for pro-FSAP activation” value in assay [1] (versus plasminogen, pro-urokinase, factor XII, prothrombin, factor X and active enzymes) is “very high selectivity”. Further, the FSAP-inhibitor complex band result in assay [2] is listed as “emergence of an FSAP-inhibitor complex band”. The effect on activity result in assay [3] and in assay [4] was “did not influence the activity” throughout. The substrate turnover result in assay [5] was “none”.
